These results are taken from patent US20180055844A1 (Celgene Corporation, priority 2011, published 2018).

One test deals with NFκB p65 and p50. Put plainly: NFκB activity in DLBCL cells (Active Motif transcription factor assay). It is filed as cell-based. The conditions noted are these: 0.1 μM, 1 μM and 10 μM, 2 days. The source says: NF-κB activity was examined with Active Motif transcription factor assay using nuclear extracts from cells following treatment.
The next test deals with ZR-75-1. Put plainly: Solid tumor cell colony formation. Type of test: cell-based. The conditions noted are these: Homo sapiens.
The test system of the next test is HUVEC. Put plainly: HUVEC tube formation. It is filed as cell-based, human.

What is called inhibition is the drop in the measured response relative to a control, in per cent. Read a high inhibition as strong suppression. On to `Cc1nc2cccc(N)c2c(=O)n1C1CCC(=O)NC1=O` (stereo not drawn) [compound of Formula I, 3-(5-amino-2-methyl-4-oxo-4H-quinazolin-3-yl)-piperidine-2,6-dione], for which, in the test on NFκB p65 and p50, the “NFκB p65 and p50 activity” value is recorded as “significantly inhibits”. The compound further registered an inhibition at 10 µM with ZR-75-1 of 90%. The “VEGF and bFGF-induced HUVEC tube formation and migration” value with HUVEC is on record as “weakly inhibited”.
